Consider four molecules from US20190038556A1, “FORMULATIONS AND CARRIER SYSTEMS INCLUDING COMPOUND INTERACTIVE DOMAINS” (University of Pittsburgh - Of The Commonwealth System of …, priority 2012, published 2019).

The nature of series [1]: Solubilization of tested agents with multi-chain PEGylated micelle-forming surfactants (Table 1). The text has this:
The exact mechanism for the protection of ECGC against oxygen in the form of complex is unknown.

A short description of series [2]: Particle size measurement by laser dynamic light scattering. The format is physicochemical. The conditions noted are these: agent formulated with multi-chain PEGylated micelle-forming surfactant. As for the experimental part:
1(f). Particle size measurement. […] Samples were further diluted ten times in distilled water and sizes were measured by laser dynamic light scattering using a particle sizer (Zetasizer Nano ZS instrument, available from Malvern Instruments Ltd of Worcestershire, United Kingdom). Size measurement of emulsion particles were conducted using a Coulter N4 particle sizer after a 100-fold dilution in saline.

Series [3] is described as follows: Oxidation of ECGC in PBS on exposure to air. The format is physicochemical. The conditions noted are these: exposed to air, free 24 hrs, complex over a week.
Series [4] is described as follows: Size distribution of PTX/PEG-Fmoc2 mixed nanomicelles (DLS). It is filed as physicochemical. The method, then: 2(b)(iv). Preparation and biophysical characterization of PTX/PEG-Fmoc2 mixed micelles. Thin-film hydration method was utilized for preparation of PTX/PEG-Fmoc2 mixed nanomicelles. PEG-Fmoc2 and PTX in chloroform were well mixed in a glass tube at designated molar ratios. A thin film of carrier/drug mixture was generated through removal of the organic solvent by a gentle stream of nitrogen. The trace amount of solvent was further removed via vacuum for 2 h. Then the film was hydrated and suspended in DPBS by vortex to obtain a clear solution of PTX/PEG-Fmoc2 mixed nanomicelles. Any non-entrapped drug was removed by filtration through 220 nm PVDF syringe filter.
(§1) The size distribution of PTX/PEG-Fmoc2 mixed nanomicelles was examined by dynamic light scattering (DLS) via a Malvern Zeta Nanosizer, and the morphology was observed by transmission electron microscopy (TEM) after negative staining. The CMC measurement was performed as reported before with pyrene as a fluorescence probe. To quantify PTX in the micelles, PTX was extracted by methanol, and detected by Waters Alliance 2695-2998 high-performance liquid chromatography (HPLC) system with a RP-18 column (250 mm×4.6 mm) equipped with a UV detector at 227 nm at room temperature. A mixture of methanol/water (80:20, v/v) was used as mobile phase at a flow rate at 0.8 mL/min. The drug loading capacity (DLC) and efficiency (DLE) were calculated as set forth above.

The nature of series [5]: CMC measurement with pyrene as a fluorescence probe. The format is physicochemical. The method, then: as §1
In series [6] the test system is 4T1.2 mouse metastatic breast cancer cell line. Description: In vitro cytotoxicity (MTT), 4T1.2. It is filed as cell-based. The conditions noted are these: 4T1.2, 72 h, FIG. 14A. As for the experimental part: (§2) The tumor-inhibitory efficacy of PEG-Fmoc/PTX was also investigated both in vitro and in vivo. In vitro cytotoxicity of PEG-Fmoc/PTX was evaluated in mouse metastatic breast cancer cell line 4T1.2, and two human prostate cancer cell lines, PC-3 and DU145. […] Without limitation to any mechanism, the increased cytotoxicity of PEG-Fmoc/PTX may, for example, be attributable to facilitated entry of PTX into tumor cells.
(§3) 2(b)(viii). In Vitro Cytotoxicity. Mouse metastatic breast cancer cell line 4T1.2, and two human prostate cancer cell lines PC-3 and DU145 were utilized to evaluate the in vitro cytotoxicity of PTX/PEG-Fmoc2. Cells were seeded in 96-well plates at 1000 (4T1.2), 2000 (DU145) and 3000 (PC-3) cells per well. […] Seventy-two h later, 20 μL of 3-(4,5-dimethylthiazol-2-yl)-2,5-diphenyltetrazoliumbromide (MTT, 5 mg/mL) was added into each well. Following incubation for 4 h, the medium was removed and 150 μL of DMSO was added to each well to solubilize the formazan crystal. The absorbance of each well was detected at 550 nm with a reference wavelength at 630 nm using a microplate reader, and cell viability was calculated based on the formula below. Untreated cells were included as a control.
(§4) % cytotoxicity=[1−(ODtreat−ODblank)/(ODcontrol−ODblank)]×100%

Series [7] relates to PC-3 human prostate cancer cell line. Description: In vitro cytotoxicity (MTT), PC-3. The conditions noted are these: PC-3, 72 h, FIG. 14B. It is filed as cell-based. The method, then: as §2, §3, §4
The subject of series [8] is DU145 human prostate cancer cell line. Kind of series: In vitro cytotoxicity (MTT), DU145. It is filed as cell-based. The conditions noted are these: DU145, 72 h, FIG. 14C. As for the experimental part: as §2, §3, §4
A further series has as its system rat red blood cells. Description: Hemolysis assay. The format is cell-based. The conditions noted are these: 2 hrs at 37° C., 5 mM. The method, then:
We also examined the hemolytic activity of plain micelles prepared from PEG-lipid and lipopeptide conjugates on rat red blood cells and compared the results to two widely used ethoxylated nonionic surfactants: Triton X-100 and Tween 80. In the studies of FIG. 6, rat red blood cells (1%) were incubated with surfactants at indicated concentrations for 2 hrs at 37° C. After such incubation, supernatants were carefully withdrawn, measured for at OD540 nm, and calculated based on OD value under a condition that total hemolysis occurred.
1(j). Hemolysis assay. Rat red blood cells (RBCs) were isolated from freshly collected rat blood with added anticoagulant by washing three times with 10 volumes of cold PBS (1500 rpm for 10 min). RBCs were then diluted to 2% w/v with ice cold DPBS and utilized immediately for the hemolysis assay. One mL of diluted RBC suspension was treated with various concentrations (0-5 mM) of PEG-lipopeptides, Tween 80, and Triton X-100, respectively, and then incubated at 37° C. in an incubator shaker for 2 h. The samples were centrifuged at 1500 rpm for 10 min at 4° C., and 100 μL of supernatant from each sample was transferred into a 96-well plate. The release of hemoglobin was determined by the absorbance at 540 nm using a micro-plate reader. […] Hemoglobin release was calculated as (ODsample−ODnegative control)/(ODpositive control−ODnegative control)×100%.

The nature of series [9]: Micelle-facilitated solubilization of JP4-039. The format is physicochemical. The conditions noted are these: at comparable molar ratios.
Protocol: In the solubilization studies of FIG. 4, various amounts of tetra chain PEG5,000-lysyl-[lysyl-(α-Fmoc-ε-oleyol-lysine)2]2 were mixed with JP4-039 in CHCl3 followed by solvent evaporation, the drug-loaded micelles were prepared by hydration in saline. The amounts of solubilized JP4-030 were determined by OD448 measurements from supernatant.
Lipopeptides, amino acid derivatives or nitroxide compounds were first dissolved in chloroform. The solutions were aliquoted to a glass test tube, mixed well, then blown with a constant nitrogen stream to remove the bulk of the solvent. The residual solvent was removed by applying high vacuum for 2 hrs. To determine micelle-facilitated solubilization of JP4-039, various molar ratios of surfactant to drug were applied to make surfactant-drug mixture in water (final concentration of JP4-039 was 5 mg/mL). After at least 30 minutes, the samples were briefly centrifuged at 13,000 rpm. One half of the supernatants was recovered, to which an equal volume of ethanol was added to dissolve/disrupt micelle drug complexes. The amounts of drug in the samples were quantitated using OD448 nm.

Consider `O=C(O[C@@H]1Cc2c(O)cc(O)cc2O[C@@H]1c1cc(O)c(O)c(O)c1)c1cc(O)c(O)c(O)c1` [EGCG, epigallocatechin gallate], for which the solubility entry in series [1] (tested agent itself, Table 1) is “freely”. In series [1] (with multi-chain PEGylated micelle-forming surfactant), this molecule gave a Soluble at of 5 mg/mL. Also, the “Size +/− SD” value in series [2] was 89.9 +/− 12 nm. In addition, the Oxidation on storage result in series [3] is reported as “readily oxidized”.
With “PEG5K-lysyl-(α-Fmoc-ε-t-Boc-lysine)2 [PEG-Fmoc]”, the “Micelle size in aqueous solution” value in [4] (carrier alone) was 25˜30 nm. Also, in series [4] (drug-free carrier 5 mg/mL), the PDI stood at 0.488. In series [4] (drug-free carrier 5 mg/mL), this molecule gave a Particle size of 28.55 ± 0.27 nm. Also, the CMC in series [5] was 5.244 µM. For the same molecule, the “Cytotoxicity (tumor cell inhibition)” value in [6], in series [7] and in [8] was “did not show apparent toxicity” in each case.
In turn, Triton X-100 gave a Hemolysis with rat red blood cells of 100%.
For the molecule “methoxy PEG2,000-carbamoyl-1-palmitoyl-2-oleoyl-sn-glycero-3-phosphotidylethanolamine [compound 8]”, the “Activity in forming a stable JP4-039-containing micelle solution” value in [9] was “inactive”.
